Laboratory results from patent US20260226038A1, “NEW COMPOUNDS FOR TREATING STAPHYLOCOCCUS INFECTIONS” (AB2 THERAPEUTICS, S. L., priority 2023, published 2026).
In brackets after ≈: the same amount, converted by molar mass.

Tested on: Staphylococcus aureus
Assay: MIC test, microdilution method (CLSI)
Format: cell-based
Details: ATCC strains of Staphylococcus aureus; 18-20 h at 37° C.; growth inhibited ≥80% compared to growth control
Protocol: Experimental Procedure: MIC Test. Microdilution Method To evaluate the antimicrobial activity of the compounds, ATCC strains of Staphylococcus aureus were used. The minimal inhibitory concentrations (MICs) of the compounds were determined by microdilution assays, according to CLSI methodology. 3 mg of compound were weighted in a 4 mL glass vials and were dissolved in properly volume of DMSO 100% (Reference: […]-50, Sigma) to reach 12.8 mg/mL (Cmax). In 96-well plates U-form (Reference: 650161, Greiner Bio-One): • Dispense 50 μL of the assayed compounds prepared in DMSO 100% at 12.8 mg/mL in each well in column 1. (8 different compounds per plate, row 1 to row 8) • Dispense 25 μL of DMSO 100% in all wells in columns 2 to 12. • With a multichannel pipette, aspire 25 μL of column 1 and dispense in column 2. Mix the contents in column 2 several times and aspire 25 μL. Dispense in column 3. • Repeat the process until column 10. In column 10, aspire 25 μL of the content and discard. In 96-well plates U-form: • With a multichannel pipette (in dispensing mode), aspire a properly volume (consider the number of copies of the mother plate do you want to perform) of all wells in mother plate, to dispense 1 μL/well in daughter plates. Tecan instrument (FREEDOM EVO 100) was used to make the mother and daughter plates. Bacterial suspension will be prepared and normalized to 0.5 McFarland turbidity standard (aprox. 10^8 CFU/mL) using a physiological saline solution (sodium chloride 0.9%). Then, prepared a 1/1000 dilution (aprox. 10^5 CFU/mL) of the suspension in appropriate media (CLSI Standard) and inoculate 99 μL in each well in daughter plates (only columns 1 to 11) using a MultidropTM Combi Reagent Dispenser. In column 12, only 99 μL of media will be dispense as a sterility control. The final plate map is (all values in μg/mL): Plates will be incubated 18-20 h at 37° C. MIC values will be considered as the concentration of compounds at which the growth will be inhibited=>≥80%, compared to growth control.

MIC [µg/mL] | Structure (SMILES)
16 (≈ 33.9 µM) | COc1ccccc1N(CCCO)C(=O)Cc1noc(CN2C(=O)C(=O)N(CC3CC3)C2=O)n1 [Example 4, 2-(5-((3-(cyclopropylmethyl)-2,4,5-trioxoimidazolidin-1-yl)methyl)-1,2,4-oxadiazol-3-yl)-N-(3-hydroxypropyl)-N-(2-methoxyphenyl)acetamide]
32 (≈ 63.8 µM) | COc1ccccc1N(CCOCCO)C(=O)Cc1noc(CN2C(=O)C(=O)N(CC3CC3)C2=O)n1 [Example 5, 2-(5-((3-(cyclopropylmethyl)-2,4,5-trioxoimidazolidin-1-yl)methyl)-1,2,4-oxadiazol-3-yl)-N-(2-(2-hydroxyethoxy)ethyl)-N-(2-methoxyphenyl)acetamide]
4 (≈ 9.68 µM) | COc1ccccc1NC(=O)Cc1noc(CN2C(=O)C(=O)N(CC3CC3)C2=O)n1 [Example 27, 2-(5-((3-(Cyclopropylmethyl)-2,4,5-trioxoimidazolidin-1-yl)methyl)-1,2,4-oxadiazol-3-yl)-N-(2-methoxyphenyl)acetamide]
8 (≈ 18.1 µM) | CCN(C(=O)Cc1noc(CN2C(=O)C(=O)N(CC3CC3)C2=O)n1)c1ccccc1OC [Example 24, 2-(5-((3-(Cyclopropylmethyl)-2,4,5-trioxoimidazolidin-1-yl)methyl)-1,2,4-oxadiazol-3-yl)-N-ethyl-N-(2-methoxyphenyl)acetamide]
4 (≈ 9.36 µM) | COc1ccccc1N(C)C(=O)Cc1noc(CN2C(=O)C(=O)N(CC3CC3)C2=O)n1 [Example 26, 2-(5-((3-(Cyclopropylmethyl)-2,4,5-trioxoimidazolidin-1-yl)methyl)-1,2,4-oxadiazol-3-yl)-N-(2-methoxyphenyl)-N-methylacetamide]
4 (≈ 8.74 µM) | COc1ccccc1N(CCO)C(=O)Cc1noc(CN2C(=O)C(=O)N(CC3CC3)C2=O)n1 [Example 1, 2-(5-((3-(Cyclopropylmethyl)-2,4,5-trioxoimidazolidin-1-yl)methyl)-1,2,4-oxadiazol-3-yl)-N-(2-hydroxyethyl)-N-(2-methoxyphenyl)acetamide]
